The values that follow are results of earlier work, collected in US20140322356A1, “CTC BIOMARKER ASSAY TO COMBAT BREAST CANCER BRAIN METASTASIS” (Baylor College of Medicine, priority 2011, published 2014).

Data set [1] deals with MDA-MB-435 carcinoma cells. The conditions noted are these: MDA-MB-435 cells selected for metastatic growth in the brain.
For the next data set, the target named is T1, heparanase (HPSE) (Homo sapiens, UniProt Q9Y251).
T1 sequence (Q9Y251 36-543): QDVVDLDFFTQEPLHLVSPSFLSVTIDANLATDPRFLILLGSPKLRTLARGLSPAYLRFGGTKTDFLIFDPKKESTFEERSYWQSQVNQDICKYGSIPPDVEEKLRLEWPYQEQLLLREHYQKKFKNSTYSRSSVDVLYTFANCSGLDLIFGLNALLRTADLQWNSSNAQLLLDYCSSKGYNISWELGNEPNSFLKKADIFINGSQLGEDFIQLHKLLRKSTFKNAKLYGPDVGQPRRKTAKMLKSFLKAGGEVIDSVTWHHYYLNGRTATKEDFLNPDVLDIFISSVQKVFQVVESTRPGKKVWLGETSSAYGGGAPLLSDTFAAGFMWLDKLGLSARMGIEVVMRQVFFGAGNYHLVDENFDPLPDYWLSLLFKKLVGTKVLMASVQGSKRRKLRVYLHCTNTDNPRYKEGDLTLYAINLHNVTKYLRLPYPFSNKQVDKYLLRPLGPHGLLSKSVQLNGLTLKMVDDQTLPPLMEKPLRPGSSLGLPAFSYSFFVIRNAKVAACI
Particulars: statement from literature, no value given.

`C[C@H](NC(=O)Cc1cc(F)cc(F)c1)C(=O)N[C@H](C(=O)OC(C)(C)C)c1ccccc1` [DAPT]: the “tumor cell migration and invasion in vitro” value in data set [1] is “inhibited”. Regarding Heparin, on heparanase (HPSE), the inhibition of heparanase result is on record as “inhibitor of HPSE”.
